For data set [1], the target named is T1, Ku70–DNA complex (Homo sapiens, UniProt P12956).
T1 construct: made in house; host or cells: Escherichia coli
The data set is described as follows: EMSA of Ku70/Ku80–DNA complex formation. Type of data set: binding. As to conditions: 12.8 nM Ku heterodimer, 4 nM labelled 40 mer DNA duplex, read-out: IC50, inhibition of Ku70–DNA complex formation. Here is the method:
A bicistronic construct was used for the simultaneous expression of the Ku70 and Ku80 proteins in E. coli. Proteins were chromatographically purified with a 6His-tag at the N terminus of the Ku80 subunit. Recombinant Ku protein was produced in bacterial cell culture, purified, and its DNA-binding activity was characterized.
Isolation was performed using affinity chromatography on Ni^2+-NTA resin. The presence of Ku and impurities was monitored using SDS-PAGE and Western blot analysis. The testing of substances as potential inhibitors of the interaction of the Ku heterodimer with DNA was carried out using the gel inhibition assay.
The testing of substances as potential inhibitors of the interaction of the Ku heterodimer with DNA was carried out using the EMSA. […] The result was visualized by radioautography on a Typhoon FLA 9500 PhosphorImager (GE Healthcare Technologies, Chicago, IL, USA). The counting of radioautograms was performed using QuantityOne 4.6.6 software (Bio-Rad, Hercules, CA, USA). The calculation of IC50 parameters was carried out by Prism 8.0.1 software (GraphPad Software, San-Diego, CA, USA).

For data set [2], the system named is P. aeruginosa ATCC 27853. Briefly: MIC by twofold serial dilution, P. aeruginosa. The following applies: Pseudomonas aeruginosa, ATCC27853; 24 h, 37 °C; read-out: MIC (Mean ± SE) P. aeruginosa ATCC 27853. Type of data set: cell-based. Here is the method:
Candida albicans ATCC 10231, Pseudomonas aeruginosa ATCC 27853, and Staphylococcus aureus ATCC 29213 strains were obtained from the American Type Culture Collection (ATCC; Rockville, MD, USA). The subculture and inoculum preparation were performed according to CLSI M27-A3 for C. albicans on yeast extract peptone dextrose (YPD) agar (HiMedia, Mumbai, Maharashtra, India) and RPMI-1640 medium (PanEco, Moscow, Russia) with MOPS (3-(N-morpholino) propanesulfonic acid, >99.5%; PanEco, Moscow, Russia), and M7-A11 for P. aeruginosa and S. aureus on Mueller-Hinton agar (MHA; HiMedia, Mumbai, Maharashtra, India) and Mueller-Hinton broth (MHB; HiMedia, Mumbai, Maharashtra, India). The stock cell concentrations of fungus and bacteria were 1 × 10^6 and 1 × 10^8 cells/mL, respectively. A working suspension of C. albicans (5.0 × 10^2 cells/mL) was prepared by two-step dilution of the broth concentration with the RPMI-1640 medium. Assay suspensions of P. aeruginosa and S. aureus (1.0 × 10^6 cells/mL) were prepared by diluting the concentration with Mueller-Hinton broth (HiMedia, Mumbai, Maharashtra, India). Amphotericin B (Sigma-Aldrich, Burlington, MA, USA) and gentamicin (Sigma-Aldrich, Burlington, MA, USA) were used as secondary pharmaceutical standards.
The minimum inhibitory concentration (MIC) was determined by the twofold serial dilution method, according to CLSI M27-A3 [33] and M07-A11 [34], in three independent experiments with four replicates each. Amphotericin B was used as a positive control for fungus; gentamicin was used as a positive control for bacteria. Stock solutions except gentamicin were prepared in DMSO at a concentration of 6400 μg/mL. Gentanicin was solubilized in sterile water at a concentration of 1280 μg/mL. Stock solutions of the tested substances were diluted to the final concentrations in the assay medium and 100 μL of each sample was added to the wells of 96-well plates, and then 100 μL of inoculum was added. Rows 11 and 12 were left for the negative control (medium with inoculum without the drug) and sterility control. The plates were incubated for 24 h at 35 °C in the case of C. albicans and at 37 °C in the case of P. aeruginosa and S. aureus. The tested concentration for gentamicin ranged from 0.0625 to 32 μg/mL; for other compounds, it ranged from 0.125 to 64 μg/mL. The MIC value was determined using spectrophotometer. The MIC was taken to be the lowest drug concentration that caused complete inhibition of microorganism growth compared to the control. The final MIC values were reported as the means with standard error (SE). Standard errors for µg/mL values less than 0.01 were excluded; standard errors for µM values less than 0.1 were excluded (Table 3).

A short description of data set [3]: Neutral red (NR) cytotoxicity assay. Type of data set: cell-based. The following applies: human, Huh-7.5 cells. The procedure:
Huh7.5 cells were grown in the DMEM/F12 (2:1) medium supplemented with 10% FBS (BioSera, Cholet, France), 2 mM L-glutamine, 100 U/mL penicillin, and 100 µg/mL streptomycin in the presence of 5% CO2 at 37 °C. Cells were re-seeded every three days at a ratio of 1:3 or 1:5.
The 40 µg/mL neutral red working solution was prepared, incubated overnight at the same temperature as the cells, and then centrifuged for 10 min at 600× g to remove any precipitated dye crystals. After the incubation with compounds tested at 37 °C in 5% CO2 for 48 h, cells were washed with PBS and then 100 µL of neutral red medium was added to each well of the plate. The plate was incubated for 2 h at the appropriate culture conditions, then the neutral red medium was removed and the cells were washed with PBS. After that 150 µL neutral red destain solution per well was added (50% ethanol, 49% deionized water, 1% glacial acetic acid (Sigma-Aldrich, Burlington, MA, USA). After the neutral red was extracted from the cells and formed a homogeneous solution, the result of the analysis was evaluated using a Tecan Spark multimode microplate reader via absorbance at 540 nm.

Data set [4] can be described thus: Sulforhodamine B (SRB) cytotoxicity assay. As to conditions: human, Huh-7.5 cells. Type of data set: cell-based. Here is the method:
Huh7.5 cells were grown in the DMEM/F12 (2:1) medium supplemented with 10% FBS (BioSera, Cholet, France), 2 mM L-glutamine, 100 U/mL penicillin, and 100 µg/mL streptomycin in the presence of 5% CO2 at 37 °C. Cells were re-seeded every three days at a ratio of 1:3 or 1:5. After an incubation period, cell monolayers were fixed with 10% (w/v) trichloroacetic acid and stained for 30 min by adding 100 µL of 0.057% (w/v) SRB solution to each well, after which the excess dye is removed by washing repeatedly with 1% (v/v) acetic acid. The protein-bound dye is dissolved in 10 mM Tris-base solution with pH 10.5 for OD determination using a Tecan Spark multimode microplate reader via absorbance at 510 nm.

Values joined by “and” are separate entries in the source; they are usually repeats but may differ in a detail not shown here. Identical values can stand only once. Some results are limits rather than exact numbers.

T1 sequence (P12956 whole entry): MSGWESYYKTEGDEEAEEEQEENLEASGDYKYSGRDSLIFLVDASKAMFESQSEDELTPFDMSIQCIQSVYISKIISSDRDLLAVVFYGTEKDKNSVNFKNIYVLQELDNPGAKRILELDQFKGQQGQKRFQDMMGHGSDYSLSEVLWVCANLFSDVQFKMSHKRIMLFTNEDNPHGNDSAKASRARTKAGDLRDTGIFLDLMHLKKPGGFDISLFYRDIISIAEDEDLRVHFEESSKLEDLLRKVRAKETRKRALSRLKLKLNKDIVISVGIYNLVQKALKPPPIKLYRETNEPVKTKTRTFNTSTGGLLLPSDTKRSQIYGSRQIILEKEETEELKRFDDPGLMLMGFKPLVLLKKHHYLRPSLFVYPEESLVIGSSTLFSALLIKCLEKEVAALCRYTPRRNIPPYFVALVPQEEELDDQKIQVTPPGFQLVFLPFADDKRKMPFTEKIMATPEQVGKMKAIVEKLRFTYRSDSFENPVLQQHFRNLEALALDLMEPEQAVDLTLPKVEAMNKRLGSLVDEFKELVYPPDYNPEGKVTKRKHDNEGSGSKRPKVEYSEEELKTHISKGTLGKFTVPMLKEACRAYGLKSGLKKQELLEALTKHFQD
T1 sequence (P13010 whole entry partner): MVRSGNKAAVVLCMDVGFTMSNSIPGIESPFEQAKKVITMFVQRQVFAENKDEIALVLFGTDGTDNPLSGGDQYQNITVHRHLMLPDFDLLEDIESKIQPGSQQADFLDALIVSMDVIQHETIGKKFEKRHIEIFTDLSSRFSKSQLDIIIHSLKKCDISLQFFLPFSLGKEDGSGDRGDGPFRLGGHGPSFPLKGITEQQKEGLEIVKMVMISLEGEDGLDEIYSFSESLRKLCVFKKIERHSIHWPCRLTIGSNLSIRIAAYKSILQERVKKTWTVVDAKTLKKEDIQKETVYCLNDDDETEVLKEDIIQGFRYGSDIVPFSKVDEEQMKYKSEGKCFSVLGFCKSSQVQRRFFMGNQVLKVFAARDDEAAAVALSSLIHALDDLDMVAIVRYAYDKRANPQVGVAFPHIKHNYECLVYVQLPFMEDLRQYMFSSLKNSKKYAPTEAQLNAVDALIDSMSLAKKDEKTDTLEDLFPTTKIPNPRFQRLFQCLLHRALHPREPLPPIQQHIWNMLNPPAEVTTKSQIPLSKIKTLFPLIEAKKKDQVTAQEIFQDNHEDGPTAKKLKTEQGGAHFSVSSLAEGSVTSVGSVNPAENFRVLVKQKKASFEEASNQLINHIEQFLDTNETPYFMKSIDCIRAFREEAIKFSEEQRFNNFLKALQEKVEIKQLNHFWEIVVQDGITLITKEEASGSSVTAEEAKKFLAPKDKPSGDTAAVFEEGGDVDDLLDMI

Turning to `Oc1c(N/N=C/c2ccccc2)ccc2cccnc12` [Compound I, 7-(2-Benzylidenohydrazinyl)-8-hydroxyquinoline], in data set [1], the IC50 came out at 40 ± 10 µM. The MIC in data set [2] is > 64 µg/mL and > 243 µM. The compound further registered a CC50 at 48 h in data set [3] of 14.5 ± 3.5 µM. Besides, the midpoint of cytotoxicity in data set [4], the CC50, lay at 59.5 ± 12.5 µM.
On to `O=[N+]([O-])c1ccc(/C=N/Nc2ccc3cccnc3c2O)cc1` [II, 7-(4-Nitrobenzylidenohydrazinyl)-8-hydroxyquinoline], for which, in data set [1], the IC50 worked out at 50 ± 20 µM. Further, the MIC in data set [2] was > 64 µg/mL and > 208 µM. Besides, in data set [3], the CC50 at 48 h was found to be 21 ± 4 µM. In data set [4], this compound had a CC50 of 8 ± 0.1 µM.
As for `O=[N+]([O-])c1cccc(/C=N/Nc2ccc3cccnc3c2O)c1` [III, 7-(3-Nitrobenzylidenohydrazinyl)-8-hydroxyquinoline], the IC50 in data set [1] stood at 60 ± 20 µM. In addition, the MIC in data set [2] was > 64 µg/mL and > 208 µM. In data set [3], the CC50 at 48 h came out at 7.1 ± 0.7 µM. This compound also came in with a cytotoxic concentration (CC50) in data set [4] of 7.1 ± 0.4 µM.
As for `COc1ccc(/C=N/Nc2ccc3cccnc3c2O)cc1` [IV, 7-(4-Methoxybenzylidenohydrazinyl)-8-hydroxyquinoline], in data set [1], the IC50 was 80 ± 30 µM. Moreover, in data set [2], the MIC was > 64 µg/mL and > 218 µM. Further, the half-maximal cytotoxic concentration (CC50) at 48 h in data set [3] was determined as 9.1 ± 1.5 µM. Moreover, in data set [4], the CC50 was found to be 40 ± 0.2 µM.
Turning to `Oc1c(N/N=C/c2ccc(Br)c(Br)c2)ccc2cccnc12` [V, 7-(3,4-Dibromobenzylidenohydrazinyl)-8-hydroxyquinoline], in data set [1], the IC50 was 25 ± 8 µM. For the same compound, the MIC in data set [2] is > 64 µg/mL and > 152 µM. In data set [3], the midpoint of cytotoxicity, the CC50 at 48 h, lay at 8.6 ± 0.1 µM. Further, in data set [4], half-maximal cytotoxicity (CC50) was put at 6.9 ± 0.3 µM.
With `Oc1c(N/N=C/c2ccc(F)cc2)ccc2cccnc12` [VI, 7-(4-Fluorobenzylidenohydrazinyl)-8-hydroxyquinoline], the IC50 in data set [1] is > 250 µM. Moreover, the MIC in data set [2] is > 64 µg/mL and > 228 µM. Moreover, the CC50 at 48 h in data set [3] amounted to 6.7 ± 0.2 µM. The midpoint of cytotoxicity in data set [4], the CC50, lay at 7 ± 0.2 µM.

Source of the values: paper PMC12428554, “Anti-HIV and Antimicrobial Activity of 7-Hydrazino-8-hydroxyquinoline-Based Aromatic Hydrazones” (International Journal of Molecular Sciences, 2025).
